Several values for one entry are separate records, joined by “and”; a condition that tells them apart may be missing. Equal entries are not always repeated. Toxic doses and inconclusive results are not listed. Rule for the calls: active = survival T/C of 150% or more; inactive = T/C below 125% in these data. Peptide text beside a SMILES is read from it.
Tested on: P388 leukemia ip, CD2F1 mice, survival T/C
Experiment: NCI In Vivo Anticancer Drug Screen. Data for tumor model P388 Leukemia (intraperitoneal) in CD2F1 (CDF1) mice
Conditions: endpoint: median survival time, higher = longer survival
In short: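 Mice carrying the transplanted tumor received test compound or vehicle. Survival was recorded in each group, and the value is the treated-group measurement divided by that of the vehicle-treated control group.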

[1] = dose: 12.5 mg/kg/injection, schedule: Q01DX009 (ip), vehicle: saline
[2] = dose: 25.0 mg/kg/injection, schedule: Q01DX009 (ip), vehicle: saline
[3] = dose: 50.0 mg/kg/injection, schedule: Q01DX009 (ip), vehicle: saline
[4] = dose: 100.0 mg/kg/injection, schedule: Q01DX009 (ip), vehicle: saline
[5] = dose: 200.0 mg/kg/injection, schedule: Q01DX009 (ip), vehicle: saline
[6] = dose: 60.0 mg/kg/injection, schedule: Q01DX005 (ip), vehicle: Klucel (hydroxypropylcellulose) (HPC)
[7] = dose: 120.0 mg/kg/injection, schedule: Q01DX005 (ip), vehicle: Klucel (hydroxypropylcellulose) (HPC)
[8] = dose: 240.0 mg/kg/injection, schedule: Q01DX005 (ip), vehicle: Klucel (hydroxypropylcellulose) (HPC)
[9] = dose: 50.0 mg/kg/injection, schedule: Q01DX005 (ip), vehicle: Klucel (hydroxypropylcellulose) (HPC)
[10] = dose: 100.0 mg/kg/injection, schedule: Q01DX005 (ip), vehicle: Klucel (hydroxypropylcellulose) (HPC)
[11] = dose: 50.0 mg/kg/injection, schedule: Q01DX009 (ip), vehicle: saline with Tween-80
[12] = dose: 100.0 mg/kg/injection, schedule: Q01DX009 (ip), vehicle: saline with Tween-80
[13] = dose: 200.0 mg/kg/injection, schedule: Q01DX009 (ip), vehicle: saline with Tween-80
[14] = dose: 100.0 mg/kg/injection, schedule: Q01DX001 (ip), vehicle: Klucel (hydroxypropylcellulose) (HPC)
[15] = dose: 200.0 mg/kg/injection, schedule: Q01DX001 (ip), vehicle: Klucel (hydroxypropylcellulose) (HPC)
[16] = dose: 400.0 mg/kg/injection, schedule: Q01DX001 (ip), vehicle: Klucel (hydroxypropylcellulose) (HPC)
[17] = dose: 60.0 mg/kg/injection, schedule: Q01DX005 (ip), vehicle: saline with Tween-80
[18] = dose: 120.0 mg/kg/injection, schedule: Q01DX005 (ip), vehicle: saline with Tween-80
[19] = dose: 240.0 mg/kg/injection, schedule: Q01DX005 (ip), vehicle: saline with Tween-80

Measured: T/C

Nc1ccc2c(c1)C1C(C3C2C2(Cl)C(Cl)=C(Cl)C3(Cl)C2(Cl)Cl)C2(Cl)C(Cl)=C(Cl)C1(Cl)C2(Cl)Cl (configuration not stated)
inactive: [1] 97 % of control | [2] 109 % of control | [3] 100 % of control and 95 % of control | [4] 100 % of control | [5] 98 % of control

COc1ccc(-c2cc(=O)c3c(O)cc(O)cc3o2)cc1Oc1ccc(-c2cc(=O)c3c(O)cc(O)cc3o2)cc1
inactive: [6] 96 % of control | [7] 96 % of control | [8] 88 % of control

CCN(CC)CC(O)c1cc(-c2ccccc2)nc2ccc(OC)cc12 (configuration not stated)
inactive: [9] 100 % of control | [10] 92 % of control

CC(=O)/C=C(\c1ccccc1)c1c(O)c2ccccc2oc1=O
inactive: [11] 89 % of control | [12] 99 % of control | [13] 114 % of control

O=Nc1ccc(Cl)cc1C(=O)c1ccccc1
inactive: [3] 90 % of control | [4] 104 % of control | [5] 97 % of control

CCN(CC)c1nc(N)nc(N)n1
inactive: dose: 6.25 mg/kg/injection, schedule: Q01DX009 (ip), vehicle: saline 106 % of control | dose: 12.5 mg/kg/injection, schedule: Q01DX009 (ip), vehicle: saline with Tween-80 107 % of control | [1] 103 % of control | dose: 25.0 mg/kg/injection, schedule: Q01DX009 (ip), vehicle: saline with Tween-80 103 % of control | [2] 107 % of control and 94 % of control | [11] 107 % of control and 94 % of control | [3] 100 % of control | [12] 101 % of control | [4] 97 % of control | [13] 88 % of control

CC1(C)N2c3ccc(Cl)cc3C(c3ccccc3)N1c1ccc(Cl)cc1C2c1ccccc1 (configuration not stated)
inactive: dose: 50.0 mg/kg/injection, schedule: Q01DX009 (ip), vehicle: Klucel (hydroxypropylcellulose) (HPC) 98 % of control | dose: 100.0 mg/kg/injection, schedule: Q01DX009 (ip), vehicle: Klucel (hydroxypropylcellulose) (HPC) 95 % of control | dose: 200.0 mg/kg/injection, schedule: Q01DX009 (ip), vehicle: Klucel (hydroxypropylcellulose) (HPC) 95 % of control

O=S(=O)([O-])[O-].OCCNCCNCC[OH2+].OCCNCCNCC[OH2+].[Ni+2]
inactive: [1] 102 % of control | [2] 93 % of control

CN(c1ccccc1)c1cc2nc3ccccc3nc2cc1O
inactive: [3] 98 % of control | [4] 91 % of control

O=C1OC(c2ccccc2)(c2ccccc2)C2CC12c1ccccc1 (configuration not stated)
inactive: [14] 95 % of control | [15] 95 % of control | [16] 88 % of control

CC1=NN(C(=O)c2ccccc2)C(=O)C1N=Nc1ccc(S(N)(=O)=O)cc1 (configuration not stated)
inactive: dose: 50.0 mg/kg/injection, schedule: Q01DX001 (ip), vehicle: Klucel (hydroxypropylcellulose) (HPC) 101 % of control | [14] 94 % of control | [15] 96 % of control | [16] 90 % of control

COC(F)C(C)=O (configuration not stated)
inactive: dose: 100.0 mg/kg/injection, schedule: Q01DX001 (ip), vehicle: other 103 % of control | dose: 200.0 mg/kg/injection, schedule: Q01DX001 (ip), vehicle: other 101 % of control | dose: 400.0 mg/kg/injection, schedule: Q01DX001 (ip), vehicle: other 112 % of control

C[N+]1(C)Cc2ccccc2C1
inactive: [1] 105 % of control | [2] 108 % of control

Cc1ccc(S(=O)(=O)N=C(N(C)C)N(C)C)cc1
inactive: dose: 100.0 mg/kg/injection, schedule: Q04DX002 (ip), vehicle: saline with Tween-80 99 % of control | dose: 200.0 mg/kg/injection, schedule: Q04DX002 (ip), vehicle: saline with Tween-80 100 % of control | dose: 400.0 mg/kg/injection, schedule: Q04DX002 (ip), vehicle: saline with Tween-80 104 % of control

CC1CC(C)(C)N=C(CCC2CCCC23OCCO3)O1 (configuration not stated)
inactive: [11] 100 % of control | [12] 104 % of control | dose: 100.0 mg/kg/injection, schedule: Q04DX003 (ip), vehicle: saline sonified 96 % of control | [13] 95 % of control | dose: 200.0 mg/kg/injection, schedule: Q04DX003 (ip), vehicle: saline sonified 96 % of control | dose: 400.0 mg/kg/injection, schedule: Q04DX003 (ip), vehicle: saline sonified 100 % of control

CC(C)(C)NC(Cc1ccccc1)=NC1CCCCC1
inactive: dose: 12.5 mg/kg/injection, schedule: Q04DX002 (ip), vehicle: saline 103 % of control | dose: 25.0 mg/kg/injection, schedule: Q04DX002 (ip), vehicle: saline 101 % of control

CC(C)(C)COc1ccc2c(c1)C1=NC2=NC2=NC(=NC3=NC(=NC4=NC(=N1)c1ccc(OCC(C)(C)C)cc14)c1ccc(OCC(C)(C)C)cc13)c1ccc(OCC(C)(C)C)cc12
inactive: [6] 99 % of control | [7] 88 % of control | [8] 89 % of control

CC(C)CC(NC(=O)C(C)NC(=O)CN)C(=O)O (stereo not drawn) (H-Gly-Ala-Leu-OH; configuration not given here)
inactive: dose: 50.0 mg/kg/injection, schedule: Q01DX005 (ip), vehicle: saline with Tween-80 103 % of control | dose: 100.0 mg/kg/injection, schedule: Q01DX005 (ip), vehicle: saline with Tween-80 107 % of control | dose: 200.0 mg/kg/injection, schedule: Q01DX005 (ip), vehicle: saline with Tween-80 99 % of control

Cc1[nH]nc(N)c1C(N)=O
inactive: [17] 100 % of control | [18] 99 % of control | [19] 86 % of control

CCC1COC(COCc2ccccc2)=N1 (configuration not stated)
inactive: dose: 100.0 mg/kg/injection, schedule: Q01DX002 (ip), vehicle: saline 98 % of control | dose: 200.0 mg/kg/injection, schedule: Q01DX002 (ip), vehicle: saline 95 % of control | dose: 400.0 mg/kg/injection, schedule: Q01DX002 (ip), vehicle: saline 95 % of control

COC(=O)C(N)CCl (configuration not stated)
inactive: dose: 12.5 mg/kg/injection, schedule: Q01DX009 (ip), vehicle: water 91 % of control | dose: 25.0 mg/kg/injection, schedule: Q01DX009 (ip), vehicle: water 92 % of control | dose: 50.0 mg/kg/injection, schedule: Q01DX009 (ip), vehicle: water 90 % of control | dose: 100.0 mg/kg/injection, schedule: Q01DX009 (ip), vehicle: water 99 % of control | dose: 200.0 mg/kg/injection, schedule: Q01DX009 (ip), vehicle: water 90 % of control

CC(=O)Oc1ccc(C2c3c(n(C(C)=O)c4ccccc34)C(=O)NN2C(C)=O)cc1 (configuration not stated)
inactive: [9] 100 % of control | [10] 109 % of control | dose: 200.0 mg/kg/injection, schedule: Q01DX005 (ip), vehicle: Klucel (hydroxypropylcellulose) (HPC) 112 % of control

Cc1oc2c(c(=O)c1C)C1CCC(C2)N1C (configuration not stated)
inactive: [9] 106 % of control | [10] 97 % of control

CCO/C=C(\C)CC1([N+](=O)[O-])C(=O)c2ccccc2C1=O
inactive: [6] 107 % of control | [7] 107 % of control | [8] 117 % of control

CC(C)COC(=O)C(CC(C)C)NC(=O)C(C)O (configuration not stated)
inactive: dose: 50.0 mg/kg/injection, schedule: Q01DX001 (ip), vehicle: suspension in saline 103 % of control | [17] 97 % of control | dose: 100.0 mg/kg/injection, schedule: Q01DX001 (ip), vehicle: suspension in saline 92 % of control | [18] 101 % of control | dose: 200.0 mg/kg/injection, schedule: Q01DX001 (ip), vehicle: suspension in saline 103 % of control | [19] 100 % of control | dose: 400.0 mg/kg/injection, schedule: Q01DX001 (ip), vehicle: suspension in saline 104 % of control

O=c1c2ccccc2sc2cccc(Sc3ccccc3)c12
inactive: [12] 95 % of control | dose: 100.0 mg/kg/injection, schedule: Q04DX003 (ip), vehicle: saline with Tween-80 95 % of control | dose: 200.0 mg/kg/injection, schedule: Q04DX003 (ip), vehicle: saline with Tween-80 90 % of control | dose: 400.0 mg/kg/injection, schedule: Q04DX003 (ip), vehicle: saline with Tween-80 90 % of control
